Experimental data as given in BindingDB's records for patent US11912703 (Bristol Myers Squibb, 2024).

Legend:
Assay in all cases: TLR7/8/9 Inhibition Reporter Assays
[1] = target: T1, Toll-like receptor 7 (Homo sapiens, UniProt Q9NYK1)
T1 sequence (Q9NYK1 whole entry): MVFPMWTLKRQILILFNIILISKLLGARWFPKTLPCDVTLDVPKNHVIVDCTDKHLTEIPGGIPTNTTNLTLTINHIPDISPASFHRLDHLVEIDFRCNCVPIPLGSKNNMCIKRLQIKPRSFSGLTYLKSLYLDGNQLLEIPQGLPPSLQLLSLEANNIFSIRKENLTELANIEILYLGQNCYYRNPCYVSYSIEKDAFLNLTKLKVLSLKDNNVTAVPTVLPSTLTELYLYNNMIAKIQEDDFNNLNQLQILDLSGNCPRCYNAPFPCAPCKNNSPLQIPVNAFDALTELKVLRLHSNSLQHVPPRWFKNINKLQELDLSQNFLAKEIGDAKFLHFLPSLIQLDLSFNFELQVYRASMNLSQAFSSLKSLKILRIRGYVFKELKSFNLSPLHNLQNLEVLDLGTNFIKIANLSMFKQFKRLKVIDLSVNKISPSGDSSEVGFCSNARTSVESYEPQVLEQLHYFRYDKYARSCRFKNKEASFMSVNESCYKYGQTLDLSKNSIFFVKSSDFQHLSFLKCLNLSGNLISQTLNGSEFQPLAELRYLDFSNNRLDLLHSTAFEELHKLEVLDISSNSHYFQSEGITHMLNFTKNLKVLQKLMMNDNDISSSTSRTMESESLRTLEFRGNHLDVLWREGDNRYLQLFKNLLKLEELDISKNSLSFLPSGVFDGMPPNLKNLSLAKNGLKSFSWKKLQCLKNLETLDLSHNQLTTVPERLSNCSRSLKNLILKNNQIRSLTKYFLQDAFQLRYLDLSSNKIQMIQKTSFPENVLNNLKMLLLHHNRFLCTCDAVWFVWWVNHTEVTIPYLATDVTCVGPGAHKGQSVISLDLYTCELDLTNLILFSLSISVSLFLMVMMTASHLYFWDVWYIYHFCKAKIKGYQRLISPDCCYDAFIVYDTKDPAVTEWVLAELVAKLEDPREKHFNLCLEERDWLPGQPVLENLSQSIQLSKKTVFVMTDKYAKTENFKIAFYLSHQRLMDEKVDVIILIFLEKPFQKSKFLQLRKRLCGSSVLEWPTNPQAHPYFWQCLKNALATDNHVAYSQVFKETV
Method: (§1) HEK-Blue-cells (Invivogen) overexpressing human TLR7, TLR8 or TLR9 receptors were used for screening inhibitors of these receptors using an inducible SEAP (secreted embryonic alkaline phosphatase) reporter gene under the control of the IFN-β minimal promoter fused to five NF-κB and AP-1-binding sites. Briefly, cells are seeded into Greiner 384 well plates (15000 cells per well for TLR7, 20,000 for TLR8 and 25,000 for TLR9) and then treated with test compounds in DMSO to yield a final dose response concentration range of 0.05 nM-50 μM. […] After a 22 hour incubation at 37 C., 500 CO2, SEAP levels are determined with the addition of HEK-Blue Detection reagent (Invivogen), a cell culture medium that allows for detection of SEAP, according to manufacturer's specifications. The percent inhibition is determined as the 00 reduction in the HEK-Blue signal present in wells treated with agonist plus DMSO alone compared to wells treated with a known inhibitor.

[2] = target: T2, Toll-like receptor 8 (Homo sapiens, UniProt Q9NR97)
T2 sequence (Q9NR97 whole entry): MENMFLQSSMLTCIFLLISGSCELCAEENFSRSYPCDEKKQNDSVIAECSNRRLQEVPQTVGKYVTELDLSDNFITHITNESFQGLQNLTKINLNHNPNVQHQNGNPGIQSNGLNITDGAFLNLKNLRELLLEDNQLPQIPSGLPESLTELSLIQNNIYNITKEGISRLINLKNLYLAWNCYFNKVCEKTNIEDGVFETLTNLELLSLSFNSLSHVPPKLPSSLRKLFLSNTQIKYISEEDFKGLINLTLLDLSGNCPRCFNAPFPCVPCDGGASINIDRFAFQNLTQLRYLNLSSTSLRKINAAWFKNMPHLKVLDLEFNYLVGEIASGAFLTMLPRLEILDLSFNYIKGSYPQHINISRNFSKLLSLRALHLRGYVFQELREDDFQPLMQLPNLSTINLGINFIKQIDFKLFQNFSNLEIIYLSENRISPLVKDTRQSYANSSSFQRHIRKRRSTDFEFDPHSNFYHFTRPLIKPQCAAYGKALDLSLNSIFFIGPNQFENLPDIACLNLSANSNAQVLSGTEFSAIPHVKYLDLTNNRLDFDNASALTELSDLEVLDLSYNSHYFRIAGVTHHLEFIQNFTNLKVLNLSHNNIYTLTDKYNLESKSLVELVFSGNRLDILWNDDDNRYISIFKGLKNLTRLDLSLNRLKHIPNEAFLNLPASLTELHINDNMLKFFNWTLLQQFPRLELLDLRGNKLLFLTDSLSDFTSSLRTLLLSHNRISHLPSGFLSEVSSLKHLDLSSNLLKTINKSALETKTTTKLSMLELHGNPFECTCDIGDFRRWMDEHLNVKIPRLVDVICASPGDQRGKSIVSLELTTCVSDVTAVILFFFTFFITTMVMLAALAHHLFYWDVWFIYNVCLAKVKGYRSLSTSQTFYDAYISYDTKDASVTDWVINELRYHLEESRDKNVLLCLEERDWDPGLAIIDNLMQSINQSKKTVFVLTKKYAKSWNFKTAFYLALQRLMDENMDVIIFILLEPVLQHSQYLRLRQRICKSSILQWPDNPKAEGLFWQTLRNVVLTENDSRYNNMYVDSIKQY
Method: as §1

[3] = target: T3, Toll-like receptor 9 (Homo sapiens, UniProt Q9NR96)
T3 sequence (Q9NR96 whole entry): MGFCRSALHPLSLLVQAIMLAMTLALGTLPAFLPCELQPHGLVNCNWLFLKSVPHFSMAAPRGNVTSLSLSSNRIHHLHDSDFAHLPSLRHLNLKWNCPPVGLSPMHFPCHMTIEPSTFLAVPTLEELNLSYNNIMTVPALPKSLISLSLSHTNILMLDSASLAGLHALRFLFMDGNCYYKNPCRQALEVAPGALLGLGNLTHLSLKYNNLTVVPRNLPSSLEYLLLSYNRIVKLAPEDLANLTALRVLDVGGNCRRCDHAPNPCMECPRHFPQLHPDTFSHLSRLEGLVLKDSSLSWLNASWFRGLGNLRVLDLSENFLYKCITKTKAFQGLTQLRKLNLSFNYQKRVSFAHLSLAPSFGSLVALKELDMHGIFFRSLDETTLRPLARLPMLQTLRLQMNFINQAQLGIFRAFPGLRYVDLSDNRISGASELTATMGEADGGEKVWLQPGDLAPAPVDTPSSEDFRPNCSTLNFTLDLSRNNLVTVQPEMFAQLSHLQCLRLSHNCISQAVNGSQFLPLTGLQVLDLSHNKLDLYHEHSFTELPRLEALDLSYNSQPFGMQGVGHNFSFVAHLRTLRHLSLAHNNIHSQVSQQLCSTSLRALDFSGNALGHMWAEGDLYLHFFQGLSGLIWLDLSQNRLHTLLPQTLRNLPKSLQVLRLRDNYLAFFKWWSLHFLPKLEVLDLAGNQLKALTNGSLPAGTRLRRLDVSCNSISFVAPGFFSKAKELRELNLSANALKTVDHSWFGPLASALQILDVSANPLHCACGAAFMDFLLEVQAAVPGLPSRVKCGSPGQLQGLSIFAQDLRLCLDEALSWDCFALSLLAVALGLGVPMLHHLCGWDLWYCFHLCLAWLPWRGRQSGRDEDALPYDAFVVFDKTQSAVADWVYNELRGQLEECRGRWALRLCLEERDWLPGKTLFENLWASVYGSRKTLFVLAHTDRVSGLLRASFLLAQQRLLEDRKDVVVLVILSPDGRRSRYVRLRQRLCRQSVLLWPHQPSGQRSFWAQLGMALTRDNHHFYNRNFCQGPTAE
Method: as §1

Row | SMILES | IC50 [1] | IC50 [2] | IC50 [3]
1 | Cc1c(-c2[nH]c3cnc(C4CCC(N5CC(CO)(CO)C5)CC4)c(F)c3c2C(C)C)cn2ncnc2c1C (configuration not stated) [US11912703, Example 266] | 26 nM | 23 nM | 2030 nM
2 | CNC(=O)CN1CCN(c2cc3c(C(C)C)c(-c4cc(OC)c5ncnn5c4)[nH]c3cn2)CC1 [US11912703, Example 288] | 27 nM | 8.5 nM | 2870 nM
3 | CNCC(=O)N1CCN(c2cc3c(C(C)C)c(-c4cc(OC)c5ncnn5c4)[nH]c3cn2)CC1 [US11912703, Example 289] | 3.7 nM | 58 nM | 14000 nM
4 | COc1cc(-c2[nH]c3cnc(N4CCN(C5COC5)CC4)cc3c2C(C)C)cn2ncnc12 [US11912703, Example 303] | 19 nM | 12 nM | > 50000 nM
